Test system: MV-4-11 cells
Assay: Gene expression microarray analysis (Affymetrix PrimeView) and GSEA
Type: cell-based, human
Parameters: RFU PODN (11730768_x_at) / Fold change /veh PODN (11730768_x_at) / RFU LINC00158 (11744669_a_at) / Fold change /veh LINC00158 (11744669_a_at) / RFU DUSP10 (11751237_a_at) / Fold change /veh DUSP10 (11751237_a_at) / RFU ID3 (11757404_x_at) / Fold change /veh ID3 (11757404_x_at) / RFU PLEKHG5 (11737974_s_at) / Fold change /veh PLEKHG5 (11737974_s_at) / RFU LRRC4B (11730491_at) / Fold change /veh LRRC4B (11730491_at) / RFU GIMAP4 (11747438_a_at) / Fold change /veh GIMAP4 (11747438_a_at) / RFU KRT8 (11758183_x_at) / Fold change /veh KRT8 (11758183_x_at) / RFU CNN1 (11734310_a_at) / Fold change /veh CNN1 (11734310_a_at) / RFU VPS37D (11726825_at) / Fold change /veh VPS37D (11726825_at) / RFU C10orf10 (11716522_x_at) / Fold change /veh C10orf10 (11716522_x_at) / RFU KIR2DL2 /// KIR2DL4 /// KIR2DL5A /// KIR2DL5B /// KIR2DS1 /// KIR2DS2 /// KIR2DS3 /// KIR2DS4 /// KIR3DL3 /// KIR3DL3 /// KIR3DS1 (11738374_at) / Fold change /veh KIR2DL2 /// KIR2DL4 /// KIR2DL5A /// KIR2DL5B /// KIR2DS1 /// KIR2DS2 /// KIR2DS3 /// KIR2DS4 /// KIR3DL3 /// KIR3DL3 /// KIR3DS1 (11738374_at) / RFU C1QL1 (11718748_at) / Fold change /veh C1QL1 (11718748_at) / RFU TMPRSS4 (11747572_a_at) / Fold change /veh TMPRSS4 (11747572_a_at) / RFU HAMP (11756126_x_at) / Fold change /veh HAMP (11756126_x_at) / RFU RNFT2 (11725882_a_at) / Fold change /veh RNFT2 (11725882_a_at) / RFU NR4A2 (11747474_a_at) / Fold change /veh NR4A2 (11747474_a_at) / RFU ABCC12 (11746883_a_at) / Fold change /veh ABCC12 (11746883_a_at) / RFU TMEM136 (11760407_x_at) / Fold change /veh TMEM136 (11760407_x_at) / RFU CLDN22 /// WWC2 (11732394_at) / Fold change /veh CLDN22 /// WWC2 (11732394_at) / RFU HLA-DPB1 (11760878_x_at) / Fold change /veh HLA-DPB1 (11760878_x_at) / RFU SPINT1 (11716480_a_at) / Fold change /veh SPINT1 (11716480_a_at) / RFU GAP43 (11754022_s_at) / Fold change /veh GAP43 (11754022_s_at) / RFU A4GNT (11735810_at) / Fold change /veh A4GNT (11735810_at) / RFU PRB3 (11715151_x_at) / Fold change /veh PRB3 (11715151_x_at) / RFU TUBB4B (11761932_at) / Fold change /veh TUBB4B (11761932_at) / RFU CAPN14 (11732068_a_at) / Fold change /veh CAPN14 (11732068_a_at) / RFU TMCC2 (11721928_a_at) / Fold change /veh TMCC2 (11721928_a_at) / RFU IRGQ (11745062_a_at) / Fold change /veh IRGQ (11745062_a_at) / RFU FAM174B (11720279_a_at) / Fold change /veh FAM174B (11720279_a_at) / RFU TMPRSS4 (11748680_a_at) / Fold change /veh TMPRSS4 (11748680_a_at) / RFU FAM212B (11763350_a_at) / Fold change /veh FAM212B (11763350_a_at) / RFU PLEKHG5 (11743358_a_at) / Fold change /veh PLEKHG5 (11743358_a_at) / RFU ZSCAN30 (11745921_a_at) / Fold change /veh ZSCAN30 (11745921_a_at) / RFU CMKLR1 (11741424_a_at) / Fold change /veh CMKLR1 (11741424_a_at) / RFU LOC101060620 /// MAPK8IP1 (11723275_at) / Fold change /veh LOC101060620 /// MAPK8IP1 (11723275_at) / RFU SPTSSB (11747773_x_at) / Fold change /veh SPTSSB (11747773_x_at) / RFU PRSS12 (11739890_at) / Fold change /veh PRSS12 (11739890_at) / RFU BIN1 (11741810_x_at) / Fold change /veh BIN1 (11741810_x_at) / RFU WNT11 (11732464_a_at) / Fold change /veh WNT11 (11732464_a_at) / RFU C10orf10 (11716521_a_at) / Fold change /veh C10orf10 (11716521_a_at) / RFU C5orf56 (11738089_at) / Fold change /veh C5orf56 (11738089_at) / RFU CYB561 (11721691_x_at) / Fold change /veh CYB561 (11721691_x_at) / RFU ANKRD19P (11752326_a_at) / Fold change /veh ANKRD19P (11752326_a_at) / RFU OR2T12 /// OR2T33 /// OR2T8 (11738714_s_at) / Fold change /veh OR2T12 /// OR2T33 /// OR2T8 (11738714_s_at) / RFU VCAN (11748164_a_at) / Fold change /veh VCAN (11748164_a_at) / RFU JSRP1 (11732532_at) / Fold change /veh JSRP1 (11732532_at) / RFU KRTAP10-11 (11738290_x_at) / Fold change /veh KRTAP10-11 (11738290_x_at) / RFU MYO3A (11730013_a_at) / Fold change /veh MYO3A (11730013_a_at) / RFU EBF3 (11725865_a_at) / Fold change /veh EBF3 (11725865_a_at) / RFU CAMK2N1 (11719241_x_at) / Fold change /veh CAMK2N1 (11719241_x_at) / RFU C5orf56 (11738088_a_at) / Fold change /veh C5orf56 (11738088_a_at) / RFU OLFML3 (11715873_a_at) / Fold change /veh OLFML3 (11715873_a_at) / RFU LOC100653217 /// NTM (11731650_a_at) / Fold change /veh LOC100653217 /// NTM (11731650_a_at) / RFU MAPK11 (11762145_a_at) / Fold change /veh MAPK11 (11762145_a_at) / RFU FIZ1 (11724087_x_at) / Fold change /veh FIZ1 (11724087_x_at) / RFU OASL (11726364_x_at) / Fold change /veh OASL (11726364_x_at) / RFU SOX15 (11748057_x_at) / Fold change /veh SOX15 (11748057_x_at) / RFU CD79A (11719716_a_at) / Fold change /veh CD79A (11719716_a_at) / RFU HIST1H1D (11736915_at) / Fold change /veh HIST1H1D (11736915_at) / RFU CASKIN2 (11723855_a_at) / Fold change /veh CASKIN2 (11723855_a_at) / RFU LOC730098 (11760151_x_at) / Fold change /veh LOC730098 (11760151_x_at) / RFU OR4N2 (11742367_at) / Fold change /veh OR4N2 (11742367_at) / RFU PRRT2 (11749266_a_at) / Fold change /veh PRRT2 (11749266_a_at) / RFU SNX32 (11753110_a_at) / Fold change /veh SNX32 (11753110_a_at) / RFU CDHR5 (11726645_a_at) / Fold change /veh CDHR5 (11726645_a_at) / RFU RCAN1 (11760418_a_at) / Fold change /veh RCAN1 (11760418_a_at) / RFU FAM167A (11723789_a_at) / Fold change /veh FAM167A (11723789_a_at) / RFU FAM26E (11764081_at) / Fold change /veh FAM26E (11764081_at) / RFU ISYNA1 (11749810_s_at) / Fold change /veh ISYNA1 (11749810_s_at) / RFU ACY1 (11761880_at) / Fold change /veh ACY1 (11761880_at) / RFU 11764098_at / Fold change /veh 11764098_at / RFU SAMD14 (11745864_x_at) / Fold change /veh SAMD14 (11745864_x_at) / RFU NPB (11741838_a_at) / Fold change /veh NPB (11741838_a_at) / RFU TMPRSS6 (11731388_a_at) / Fold change /veh TMPRSS6 (11731388_a_at) / RFU KRTAP10-2 (11738614_at) / Fold change /veh KRTAP10-2 (11738614_at) / RFU ARHGAP8 /// PRR5-ARHGAP8 (11727945_x_at) / Fold change /veh ARHGAP8 /// PRR5-ARHGAP8 (11727945_x_at) / RFU KRTAP5-7 /// NADSYN1 (11734609_at) / Fold change /veh KRTAP5-7 /// NADSYN1 (11734609_at) / RFU RASL12 (11751679_a_at) / Fold change /veh RASL12 (11751679_a_at) / RFU CDKN2B (11736163_a_at) / Fold change /veh CDKN2B (11736163_a_at) / RFU PRF1 (11729649_at) / Fold change /veh PRF1 (11729649_at) / RFU, ZNF638 /// ZNF638-IT1 / Fold change vs veh, ZNF638 /// ZNF638-IT1 / RFU, PANK3 / Fold change vs veh, PANK3 / RFU, SH3YL1 / Fold change vs veh, SH3YL1 / RFU, ZEB2 / Fold change vs veh, ZEB2 / RFU, NRIP1 / Fold change vs veh, NRIP1 / RFU, PTTG1IP / Fold change vs veh, PTTG1IP / RFU, CAPN2 / Fold change vs veh, CAPN2 / RFU, MED14 / Fold change vs veh, MED14 / RFU, SNORA58 / Fold change vs veh, SNORA58 / RFU, C1orf63 / Fold change vs veh, C1orf63 / RFU, LRRFIP1 / Fold change vs veh, LRRFIP1 / RFU, NDUFAF7 / Fold change vs veh, NDUFAF7 / RFU, SLC12A2 / Fold change vs veh, SLC12A2 / RFU, IBTK / Fold change vs veh, IBTK / RFU, ESF1 / Fold change vs veh, ESF1 / Fold change vs veh, TMEM50B / RFU, TAOK1 / Fold change vs veh, TAOK1 / RFU, ACBD3 / Fold change vs veh, ACBD3 / RFU, TMA16 / Fold change vs veh, TMA16 / RFU, RWDD3 / Fold change vs veh, RWDD3 / RFU, BCAT1 / Fold change vs veh, BCAT1 / RFU, EDEM3 / Fold change vs veh, EDEM3 / RFU, TMEM33 / Fold change vs veh, TMEM33 / RFU, WDR75 / Fold change vs veh, WDR75 / RFU, AHCTF1 / Fold change vs veh, AHCTF1 / RFU, TFRC / Fold change vs veh, TFRC / RFU, ZDHHC17 / Fold change vs veh, ZDHHC17 / RFU, NOM1 / Fold change vs veh, NOM1 / RFU, ARL8B / Fold change vs veh, ARL8B / RFU, ZBTB11 / Fold change vs veh, ZBTB11 / RFU, TAMM41 / Fold change vs veh, TAMM41 / RFU, KIAA1704 /// LOC100996395 / Fold change vs veh, KIAA1704 /// LOC100996395 / RFU, ING1 / Fold change vs veh, ING1 / RFU, TRMT61B / Fold change vs veh, TRMT61B / RFU, FUBP3 / Fold change vs veh, FUBP3 / RFU, TP53 / Fold change vs veh, TP53 / RFU, TNKS2 / Fold change vs veh, TNKS2 / RFU, ZFP14 / Fold change vs veh, ZFP14 / RFU, ACTR2 / Fold change vs veh, ACTR2 / RFU, PPP3R1 / Fold change vs veh, PPP3R1 / RFU, PIK3R1 / Fold change vs veh, PIK3R1 / RFU, HNRNPA1 / Fold change vs veh, HNRNPA1 / RFU, RNF170 / Fold change vs veh, RNF170 / RFU, ZNF28 / Fold change vs veh, ZNF28 / RFU, RNGTT / Fold change vs veh, RNGTT / RFU, OGT / Fold change vs veh, OGT / RFU, BRD1 / Fold change vs veh, BRD1 / RFU, MARS / Fold change vs veh, MARS / RFU, ZNF655 / Fold change vs veh, ZNF655 / RFU, FAHD1 / Fold change vs veh, FAHD1 / RFU, BDP1 / Fold change vs veh, BDP1 / RFU, LRRCC1 / Fold change vs veh, LRRCC1 / RFU, ARID1A / Fold change vs veh, ARID1A / RFU, ZNF146 / Fold change vs veh, ZNF146 / RFU, ZNF330 / Fold change vs veh, ZNF330 / RFU, GPN3 / Fold change vs veh, GPN3 / RFU, C9orf123 / Fold change vs veh, C9orf123 / RFU, N4BP2L2 / Fold change vs veh, N4BP2L2 / RFU, ARFIP1 / Fold change vs veh, ARFIP1 / RFU, FAM179B / Fold change vs veh, FAM179B / RFU, BCL10 / Fold change vs veh, BCL10 / RFU, UHRF1BP1L / Fold change vs veh, UHRF1BP1L / RFU, BET1 / Fold change vs veh, BET1 / RFU, CNOT2 / Fold change vs veh, CNOT2 / RFU, ZNF268 / Fold change vs veh, ZNF268 / Fold change vs veh, ZNF507 / RFU, DGCR2 / Fold change vs veh, DGCR2 / RFU, WDSUB1 / Fold change vs veh, WDSUB1 / Fold change vs veh, HSP90B1 /// MIR3652 / RFU, ADSS / Fold change vs veh, ADSS / RFU, GK / Fold change vs veh, GK / RFU, ZNF148 / Fold change vs veh, ZNF148 / RFU, TAF9 / Fold change vs veh, TAF9 / RFU, SLC1A5 / Fold change vs veh, SLC1A5 / RFU, SLMO2 / Fold change vs veh, SLMO2 / RFU, ABCC4 / Fold change vs veh, ABCC4 / RFU, LOC101060439 /// RAP1B / Fold change vs veh, LOC101060439 /// RAP1B / RFU, RFX7 / Fold change vs veh, RFX7 / RFU, GTPBP10 / Fold change vs veh, GTPBP10 / RFU, CNEP1R1 / Fold change vs veh, CNEP1R1 / RFU, BIVM-ERCC5 /// ERCC5 / Fold change vs veh, BIVM-ERCC5 /// ERCC5 / RFU, ILF3 / Fold change vs veh, ILF3 / RFU 11762660_at / Fold change /veh 11762660_at / RFU VCAN (11757783_s_at) / Fold change /veh VCAN (11757783_s_at) / RFU DDX43 (11728927_at) / Fold change /veh DDX43 (11728927_at) / RFU KRT8 (11758188_x_at) / Fold change /veh KRT8 (11758188_x_at) / RFU NKD1 (11759106_at) / Fold change /veh NKD1 (11759106_at) / RFU SRD5A1 (11742802_a_at) / Fold change /veh SRD5A1 (11742802_a_at) / RFU TPSAB1 /// TPSB2 (11721975_s_at) / Fold change /veh TPSAB1 /// TPSB2 (11721975_s_at) / RFU GSTM3 (11746129_a_at) / Fold change /veh GSTM3 (11746129_a_at) / RFU IL23R (11737362_x_at) / Fold change /veh IL23R (11737362_x_at) / RFU TMEM51 (11727254_a_at) / Fold change /veh TMEM51 (11727254_a_at) / RFU PIWIL2 (11732686_x_at) / Fold change /veh PIWIL2 (11732686_x_at) / RFU ORM1 (11744905_x_at) / Fold change /veh ORM1 (11744905_x_at) / RFU CCDC152 (11743942_at) / Fold change /veh CCDC152 (11743942_at) / RFU ECM1 (11717891_a_at) / Fold change /veh ECM1 (11717891_a_at) / RFU IL23R (11748794_a_at) / Fold change /veh IL23R (11748794_a_at) / RFU TNFAIP8L3 (11732012_x_at) / Fold change /veh TNFAIP8L3 (11732012_x_at) / RFU MBOAT4 (11741988_at) / Fold change /veh MBOAT4 (11741988_at) / RFU 11764193_at / Fold change /veh 11764193_at / RFU TMEM53 (11763286_at) / Fold change /veh TMEM53 (11763286_at) / RFU MAGEB2 (11727129_at) / Fold change /veh MAGEB2 (11727129_at) / RFU TMEM200A (11744735_a_at) / Fold change /veh TMEM200A (11744735_a_at) / RFU CCDC152 (11751479_a_at) / Fold change /veh CCDC152 (11751479_a_at) / RFU FAM211A (11726209_a_at) / Fold change /veh FAM211A (11726209_a_at) / RFU RGS16 (11746705_a_at) / Fold change /veh RGS16 (11746705_a_at) / RFU VCAN (11755009_s_at) / Fold change /veh VCAN (11755009_s_at) / RFU RHOB (11743442_s_at) / Fold change /veh RHOB (11743442_s_at) / RFU RGS16 (11720943_a_at) / Fold change /veh RGS16 (11720943_a_at) / RFU RGS16 (11720944_at) / Fold change /veh RGS16 (11720944_at) / RFU, VPS4B / Fold change vs veh, VPS4B / RFU, CREB1 / Fold change vs veh, CREB1 / RFU, DNAJC13 / Fold change vs veh, DNAJC13 / RFU, GNAQ / Fold change vs veh, GNAQ / RFU, CDK5R1 / Fold change vs veh, CDK5R1 / RFU, ZRANB3 / Fold change vs veh, ZRANB3 / RFU, CUL4A / Fold change vs veh, CUL4A / RFU, CCNY / Fold change vs veh, CCNY / RFU, UFL1 / Fold change vs veh, UFL1 / RFU, COG3 / Fold change vs veh, COG3 / RFU, DIAPH2 / Fold change vs veh, DIAPH2 / RFU, SKA2 / Fold change vs veh, SKA2 / RFU, AFF3 / Fold change vs veh, AFF3 / RFU, LMF1 / Fold change vs veh, LMF1 / RFU, IPO11 / Fold change vs veh, IPO11 / RFU, DFFB / Fold change vs veh, DFFB / RFU, FOXP1 / Fold change vs veh, FOXP1 / RFU, CARD8 / Fold change vs veh, CARD8 / RFU, STRN3 / Fold change vs veh, STRN3 / RFU, ADK / Fold change vs veh, ADK / RFU, RASSF2 / Fold change vs veh, RASSF2 / RFU, WIPF1 / Fold change vs veh, WIPF1 / RFU, LARP1B / Fold change vs veh, LARP1B / RFU, RASA1 / Fold change vs veh, RASA1 / RFU, RB1 / Fold change vs veh, RB1 / RFU, PPFIA1 / Fold change vs veh, PPFIA1 / RFU, MAT2A / Fold change vs veh, MAT2A / RFU, CCT5 / Fold change vs veh, CCT5 / RFU, WDR92 / Fold change vs veh, WDR92 / RFU, CUX1 / Fold change vs veh, CUX1 / RFU, TTC7A / Fold change vs veh, TTC7A / RFU, TMEM135 / Fold change vs veh, TMEM135 / RFU, DEPTOR / Fold change vs veh, DEPTOR / RFU, CPM / Fold change vs veh, CPM / RFU, DNAJB6 / Fold change vs veh, DNAJB6 / RFU, CACNA2D3 / Fold change vs veh, CACNA2D3 / RFU, DTX4 / Fold change vs veh, DTX4 / RFU, TFCP2 / Fold change vs veh, TFCP2 / RFU, GMCL1 /// GMCL1P1 / Fold change vs veh, GMCL1 /// GMCL1P1 / RFU, AEBP2 / Fold change vs veh, AEBP2 / RFU, SNHG1 /// SNORD22 /// SNORD25 /// SNORD26 /// SNORD27 /// SNORD28 /// SNORD29 /// SNORD31 / Fold change vs veh, SNHG1 /// SNORD22 /// SNORD25 /// SNORD26 /// SNORD27 /// SNORD28 /// SNORD29 /// SNORD31 / Fold change (Aza/veh), C12orf56 (ProbeSet 11735607_a_at) / Fold change (ACY-1035/veh), C12orf56 (ProbeSet 11735607_a_at) / Fold change (Aza/veh), FGFR1OP (ProbeSet 11751329_s_at) / Fold change (ACY-1035/veh), FGFR1OP (ProbeSet 11751329_s_at) / Fold change (Aza/veh), VPS36 (ProbeSet 11739960_a_at) / Fold change (ACY-1035/veh), VPS36 (ProbeSet 11739960_a_at) / RFU SYPL1 (11715823_x_at) / Fold change /veh SYPL1 (11715823_x_at) / RFU IGFBP7 (11715501_s_at) / Fold change /veh IGFBP7 (11715501_s_at) / RFU REEP3 (11722064_at) / Fold change /veh REEP3 (11722064_at) / RFU IGLL1 (11728026_x_at) / Fold change /veh IGLL1 (11728026_x_at): dose or concentration left out as unconfirmed
Details: MV-4-11 cells, 48 hours

Compound: Nc1ncn([C@@H]2O[C@H](CO)[C@@H](O)[C@H]2O)c(=O)n1 [azacitidine]
- RFU TMPRSS4 (11748680_a_at): 47.70 RFU
